Measured values taken from US12606543B2, “Indole derivatives as serotonergic agents useful for the treatment of disorders related thereto” (priority 2023, dated 2026).
Read-outs that look alike come from different tables or passages of the source.

Assays:
human 5-HT2B receptor [1] = molecular target: T1, human 5-HT2B receptor (Homo sapiens, UniProt P41595); assay: Human 5-HT2B radioligand binding assay ([3H]-LSD)
Protocol: The objective of this study was to evaluate the binding properties of test compounds on 5-HT2B.
1) The assay buffer was prepared following Table 29 below.
2) Eight doses of reference and test compounds starting from 10 mM stock solution as requested by 5-fold serial dilutions with 100% (v/v) DMSO.
3) UniFilter-96 GF/B plate was pretreated: • a. 50 μL/well of 0.5% (v/v) PEI to UniFilter-96 GF/B plates. The plates were sealed and incubated at 4° C. for 3 hrs. • b. After incubation, the plates were washed 3 times with ice-cold wash buffer (50 mM Tris, pH 7.4).
4) Assay plate preparation: • a. Cell membrane was diluted with assay buffer and 330 μL/well added to 96 round deep well plates to reach a concentration of 1 unit/well. • b. Eight concentrations of reference or test compounds were prepared and 110 μL/well added to 96 round deep well plates. • c. [3H]-LSD was diluted with assay buffer to 5 nM (5× final concentration) and 110 μL/well was added to 96 round deep well plates.
5) The plate was centrifuged at 1000 rpm for 30 secs and then agitated at 600 rpm at room temperature for 5 mins.
6) The plates were sealed and incubated at 37° C. for 90 mins.
7) The incubation was stopped by vacuum filtration onto GF/B filter plates followed by washing four times with ice-cold wash buffer (50 mM Tris, pH7.4).
9) The filter plates were sealed and 40 μL/well of scintillation cocktail was added.
10) The plate was read using a Microbeta2 microplate counter.
(§1) For reference and test compounds, the results are expressed as % Inhibition, using the normalization equation: N=100−100×(U−C2)/(C1−C2), where U is the unknown value, C1 is the average of high controls, and C2 is the average of low controls. The IC50 is determined by fitting percentage of inhibition as a function of compound concentrations with Hill equation.
The objective of this study is to evaluate the binding properties of test compounds on 5-HT2B.
1) The assay buffer was prepared following Table 59 below.
3) UniFilter-96 GF/B plate was pretreated: • a. 50 μL/well of 0.5% (v/v) PEI to UniFilter-96 GF/B plates. The plates were sealed and incubate at 4° C. for 3 hrs. • b. After incubation, the plates were washed three times with ice-cold wash buffer (50 mM Tris, pH7.4).
5) The plate was centrifuged at 1000 rpm for 30 secs and then agitated at 600 rpm at room temperature for 5 min.
8) The plates were dried at 37° C. for 45 mins.
10) The plate was read using a Microbeta^2 microplate counter.
as §1, with “average of the high controls,” for “average of high controls,”, “average of the low controls.” for “average of low controls.”

human 5-HT2B receptor [2] = molecular target: T1, human 5-HT2B receptor; assay: Human 5-HT2B positive allosteric modulator (PAM) assay; assay type: cell-based; set-up: expressed in transfected cells; host or cells: HEK293; details: for Emax (% of serotonin): PAM mode, agonist at EC20, relative to maximum response of serotonin
Protocol: Compound potency (EC50) and efficacy (Max response) against the human 5-HT2B receptor in stably transfected HEK293 cells were determined in a GPCR cell-based assay.
(§2) For Positive Allosteric Modulator determination, cells were pre-incubated with sample followed by EC20 addition. Intermediate dilution of sample stocks were performed to generate 5× samples in assay buffer. 5 μL of 5× samples were added to cells and incubated at 37° C. for 10 mins. 5 μL of agonist at 6×EC20 concentration was added and cells were incubated at 37° C. for 120 mins. Final assay vehicle concentration was 1%. The results are expressed as percent efficacy relative to the maximum response of the control ligand (serotonin) in Table 14.
Compound potency (EC50) and efficacy (Max response) against the human 5-HT2B receptor in stably transfected HEK293 cells was determined in a GPCR cell-based assay.
as §2, with “sample stocks was performed to” for “sample stocks were performed to”, “added and the cells were” for “added and cells were”, “120 mins. The final assay vehicle” for “120 mins. Final assay vehicle”, “in Table 64.” for “in Table 14.”

human 5-HT2B receptor [3] = molecular target: T1, human 5-HT2B receptor; assay: Human 5-HT2B FLIPR calcium mobilization assay; assay type: cell-based; set-up: expressed in transfected cells; host or cells: HEK293; details: for Emax (% of serotonin): HEK293 cells, relative to maximum response of serotonin
Protocol: Compound potency (EC50) and efficacy (Max response) against the human 5-HT2B receptor in stably transfected HEK293 cells were determined in a calcium mobilization-based assay.
Cells were seeded in a total volume of 20 μL into white walled, 384-well microplates and incubated at 37° C. overnight. Prior to testing, cell plating media was exchanged with 20 μL of Dye Loading buffer (HBSS+20 mM HEPES containing 1× Dye, 1× Additive A, and 2.5 mM Probenecid). Plates were incubated at 37° C. for 45 mins followed by 15 mins at room temperature.
(§3) 10 μL of assay buffer (HBSS+20 mM HEPES) were added to cells. Intermediate dilution of sample stocks was performed to generate 4× samples in assay buffer. Assay plates and compound plates were loaded into the FLIPR instrument. 10 μL of sample was added using the FLIPR onboard robotics after 5 seconds of starting calcium measurement. A final assay vehicle concentration was 1%. The results are expressed as percent efficacy relative to the maximum response of the control ligand (serotonin) in Table 12.
Compound potency (EC50) and efficacy (Max response) against the human 5-HT2B receptor in stably transfected HE K293 cells was determined in a calcium mobilization-based assay.
as §3, with “HEPES) was” for “HEPES) were”, “of samples were” for “of sample was”, “5 secs” for “5 seconds”, “measurement. The” for “measurement. A”, “Table 62.” for “Table 12.”

[4] = [3H]-LSD displacement, cell membrane, 37° C., 90 min, read-out: 5-HT2B, IC50
[5] = [3H]-LSD displacement, cell membrane, 37° C., 90 min, read-out: 5-HT2B, Ki
[6] = PAM mode: pre-incubation with sample, then agonist at EC20, HEK293 cells, read-out: EC50
[7] = calcium mobilization FLIPR, stably transfected HEK293 cells, read-out: EC50

T1 sequence (P41595 whole entry): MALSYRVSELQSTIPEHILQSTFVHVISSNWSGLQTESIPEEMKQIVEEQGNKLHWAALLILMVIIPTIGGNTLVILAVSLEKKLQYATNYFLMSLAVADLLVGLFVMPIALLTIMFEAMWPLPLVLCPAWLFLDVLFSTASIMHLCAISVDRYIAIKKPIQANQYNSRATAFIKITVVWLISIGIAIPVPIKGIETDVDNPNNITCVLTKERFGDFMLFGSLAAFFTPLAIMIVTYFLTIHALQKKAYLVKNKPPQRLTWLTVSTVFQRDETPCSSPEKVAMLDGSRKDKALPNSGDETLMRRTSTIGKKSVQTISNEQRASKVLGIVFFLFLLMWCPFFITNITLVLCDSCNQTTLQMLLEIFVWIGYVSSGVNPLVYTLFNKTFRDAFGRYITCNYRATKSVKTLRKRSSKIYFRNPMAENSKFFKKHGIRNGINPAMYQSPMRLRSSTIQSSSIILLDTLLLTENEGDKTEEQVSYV

SMILES	IC50 (human 5-HT2B receptor [1]; [4])	Ki (human 5-HT2B receptor [1]; [5])	EC50 (human 5-HT2B receptor [2])	Emax (% of serotonin) (human 5-HT2B receptor [2]; HEK293 cells)	IC50 (human 5-HT2B receptor [1])	Ki (human 5-HT2B receptor [1])	EC50 (human 5-HT2B receptor [3])	Emax (% of serotonin) (human 5-HT2B receptor [3]; calcium mobilization FLIPR)	EC50 (human 5-HT2B receptor [2]; [6])	EC50 (human 5-HT2B receptor [3]; [7])
[2H]C([2H])(c1c[nH]c2ccc(OCCCCCN3C(=O)C4CCCCC4C3=O)cc12)[C@H]1CCCN1C([2H])([2H])[2H] (mixture of isomers) [Rac (R) I-248]	46.3 nM	23.9 nM								
CSc1ccc2[nH]cc(C[C@H]3CCCN3C)c2c1 [(R) I-1, (R)-3-((1-Methylpyrrolidin-2-yl)methyl)-5-(methylthio)-1H-indole]			> 10000 nM	0 % of serotonin	19 nM	9.82 nM	2.74 nM	62.94 % of serotonin		
COCCN1CCC[C@@H]1Cc1c[nH]c2ccc(OC)cc12 [(R) I-98, (R)-5-Methoxy-3-((1-(2-methoxyethyl)pyrrolidin-2-yl)methyl)-1H-indole]	45.6 nM	23.6 nM		0 % of serotonin				52.7 % of serotonin	> 10000 nM	2.88 nM
[2H]C([2H])(c1c[nH]c2ccc(OCCCCN3C(=O)c4ccccc4C3=O)cc12)[C@H]1CCCN1C([2H])([2H])[2H] [(R) I-244, (R)-2-(4-((3-((1-(Methyl-d3)pyrrolidin-2-yl)methyl-d2)-1H-indol-5-yl)oxy)butyl)isoindoline-1,3-dione]	21.4 nM	11.1 nM		26.89 % of serotonin				92.75 % of serotonin	97.4 nM	2.5 nM
[2H]C([2H])(c1c[nH]c2ccc(OCCCCCN3C(=O)c4ccccc4C3=O)cc12)[C@H]1CCCN1C([2H])([2H])[2H] [(R) I-245, (R)-2-(5-((3-((1-(Methyl-d3)pyrrolidin-2-yl)methyl-d2)-1H-indol-5-yl)oxy)pentyl)isoindoline-1,3-dione]				0 % of serotonin				53.91 % of serotonin	> 3330 nM	11.2 nM
[2H]C([2H])(c1c[nH]c2ccc(OCCCCCN3C(=O)[C@H]4CCCC[C@H]4C3=O)cc12)[C@H]1CCCN1C([2H])([2H])[2H] [Cis (R) I-248, 2-(5-((3-(((R)-1-(Methyl-d3)pyrrolidin-2-yl)methyl-d2)-1H-indol-5-yl)oxy)pentyl)hexahydro-1H-isoindole-1,3(2H)-dione]				7.97 % of serotonin				69.85 % of serotonin	> 10000 nM	24.9 nM
